Test results from patent publication US20240043439A1, “COMPOUNDS AS C5AR INHIBITORS” (Kira Pharmaceuticals (Suzhou) Ltd., priority 2020, published 2024).

Experiments:
[1] = target: human C5a receptor (C5aR) (Homo sapiens (Human), UniProt P21730); test: Inhibition of C5a-C5aR binding (biotinylated human C5a, U937/C5aR cells, FACS)
Procedure, shortened: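 Binding read by flow cytometry as FITC-streptavidin signal (30 min on ice) on washed cells after a 120 min on-ice incubation of compound with biotinylated human C5a (30 nM working solution). Cells used were C5aR-transfected U937, suspended at 3×10^6 cells/ml in PBS containing 0.1% BSA.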

C5aR = C5aR (Homo sapiens (Human), UniProt P21730); test: Calcium mobilization (U937/C5aR or HEK293/C5aR cells, FLIPR); type: cell-based; conditions: agonist human C5a at EC80, FLIPR
Procedure, shortened: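 FLIPR calcium-flux read-out using Fluo-4 Direct-loaded C5aR-expressing U937 or HEK293 cells stimulated with human C5a at its EC80. Compound was applied for 60 min before dye loading (50 min at 37 °C plus 10 min at room temperature) and agonist addition.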

Sequence of human C5a receptor (C5aR) (P21730 whole entry): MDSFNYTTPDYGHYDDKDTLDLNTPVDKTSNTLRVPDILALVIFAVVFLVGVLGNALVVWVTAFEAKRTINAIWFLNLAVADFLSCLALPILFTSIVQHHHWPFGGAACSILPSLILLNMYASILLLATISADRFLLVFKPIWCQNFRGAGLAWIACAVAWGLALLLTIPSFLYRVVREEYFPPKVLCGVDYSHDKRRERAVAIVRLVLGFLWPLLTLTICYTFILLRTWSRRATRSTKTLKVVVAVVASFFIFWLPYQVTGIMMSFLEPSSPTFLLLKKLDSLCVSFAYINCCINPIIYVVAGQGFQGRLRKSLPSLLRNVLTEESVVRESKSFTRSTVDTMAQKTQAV
Sequence of C5aR (P21730 whole entry): as above

SMILES	IC50 [1]	IC50 (C5aR)
Cc1cccc(F)c1C(=O)N1C2CCCC2CC(C(=O)Nc2ccc3c(c2)CCN(C(=O)OC(C)(C)C)C3)C1c1ccc(NC2CCCC2)cc1 (stereo not drawn) [Compound 202, tert-butyl 6-cis-2-(4-(cyclopentylamino)phenyl)-1-(2-fluoro-6-methylbenzoyl)octahydro-1H-cyclopenta[b]pyridine-3-carboxamido)-3,4-dihydroisoquinoline-2(1H)-carboxylate]	> 5 µM	2 to 10 µM
Cc1cccc(F)c1C(=O)N1C2COC[C@@H]2C[C@H](C(=O)Nc2ccccc2)[C@@H]1c1ccc(NC2CCOCC2)cc1 (relative stereo) [Compound 129, cis-1-(2-fluoro-6-methylbenzoyl)-N-phenyl-2-(4-((tetrahydro-2H-pyran-4-yl)amino)phenyl)octahydrofuro[3,4-b]pyridine-3-carboxamide]	2 to 5 µM	2 to 10 µM
Cc1cccc(F)c1C(=O)N1[C@@H]2CCC[C@@H]2C[C@H](C(=O)Nc2ccc3c(c2)OCCO3)[C@@H]1c1ccc(NC2CCCC2)cc1 (racemic) [Compound 71, cis-2-(4-(cyclopentylamino)phenyl)-N-(2,3-dihydrobenzo[b][1,4]dioxin-6-yl)-1-(2-fluoro-6-methylbenzoyl)octahydro-1H-cyclopenta[b]pyridine-3-carboxamide]	< 0.05 µM	2 to 10 µM
Cc1ccc(NC(=O)[C@H]2CCCN(S(=O)(=O)c3ccc(F)cc3C)[C@H]2c2ccc(NC3CCCC3)cc2)cc1C(F)(F)F [Compound 15, (2R,3S)-2-(4-(cyclopentylamino)phenyl)-1-((4-fluoro-2-methylphenyl)sulfonyl)-N-(4-methyl-3-(trifluoromethyl)phenyl)piperidine-3-carboxamide]	2 to 5 µM	2 to 10 µM
COc1ccccc1S(=O)(=O)N1CCC[C@H](C(=O)Nc2ccc(C)c(C(F)(F)F)c2)[C@@H]1c1ccc(NC2CCCC2)cc1 [Compound 23, (2R,3S)-2-(4-(cyclopentylamino)phenyl)-1-((2-methoxyphenyl)sulfonyl)-N-(4-methyl-3-(trifluoromethyl)phenyl)piperidine-3-carboxamide]	2 to 5 µM	2 to 10 µM
Cc1cccc(F)c1C(=O)N1C(c2ccc(NC3CCCC3)cc2)C(C(=O)Nc2ccc3c(c2)CCNC3)C[C@@H]2CCC[C@@H]21 (relative stereo) [Compound 184, cis-2-(4-(cyclopentylamino)phenyl)-1-(2-fluoro-6-methylbenzoyl)-N-(1,2,3,4-tetrahydroisoquinolin-6-yl)octahydro-1H-cyclopenta[b]pyridine-3-carboxamide]	2 to 5 µM	2 to 10 µM
Cc1ccc(NC(=O)[C@H]2CCCN(S(=O)(=O)c3c(F)cccc3F)[C@H]2c2ccc(NC3CCCC3)cc2)cc1C(F)(F)F [Compound 19, (2R,3S)-2-(4-(cyclopentylamino)phenyl)-1-((2,6-difluorophenyl)sulfonyl)-N-(4-methyl-3-(trifluoromethyl)phenyl)piperidine-3-carboxamide]	2 to 5 µM	2 to 10 µM
Cc1ccc(NC(=O)[C@H]2CCCN(S(=O)(=O)c3ccccc3S(C)(=O)=O)[C@H]2c2ccc(NC3CCCC3)cc2)cc1C(F)(F)F [Compound 29, (2R,3S)-2-(4-(cyclopentylamino)phenyl)-N-(4-methyl-3-(trifluoromethyl)phenyl)-1-((2-(methylsulfonyl)phenyl)sulfonyl)piperidine-3-carboxamide]	2 to 5 µM	2 to 10 µM
Cc1ccc(NC(=O)[C@H]2CCCN[C@H]2c2ccc(NC3CCCC3)cc2)cc1C(F)(F)F [Compound 200, (2R,3S)-2-(4-(cyclopentylamino)phenyl)-N-(4-methyl-3-(trifluoromethyl)phenyl)piperidine-3-carboxamide]	> 5 µM	2 to 10 µM
Cc1ccc(NC(=O)[C@H]2CCCN(S(=O)(=O)c3c(C)nn(C)c3C)[C@H]2c2ccc(NC3CCCC3)cc2)cc1C(F)(F)F [Compound 38, (2R,3S)-2-(4-(cyclopentylamino)phenyl)-N-(4-methyl-3-(trifluoromethyl)phenyl)-1-((1,3,5-trimethyl-1H-pyrazol-4-yl)sulfonyl)piperidine-3-carboxamide]	2 to 5 µM	> 10 µM
Cc1ccc(NC(=O)[C@H]2C[C@H]3COCC3N(C(=O)c3c(C)cccc3F)[C@H]2c2ccc(NC3CCOCC3)cc2)cc1C(F)(F)F (mixture of isomers) [Compound 135, cis-1-(2-fluoro-6-methylbenzoyl)-N-(4-methyl-3-(trifluoromethyl)phenyl)-2-(4-((tetrahydro-2H-pyran-4-yl)amino)phenyl)octahydrofuro[3,4-b]pyridine-3-carboxamide]	0.05 to 0.5 µM	0.5 to 2 µM
Cc1ccc(NC(=O)[C@@H]2CCCN(c3ncnc4cccnc34)[C@H]2c2ccc(NC3CCCC3)cc2)cc1C(F)(F)F [Compound 7, (2R,3R)-2-(4-(cyclopentylamino)phenyl)-N-(4-methyl-3-(trifluoromethyl)phenyl)-1-(pyrido[3,2-d]pyrimidin-4-yl)piperidine-3-carboxamide]	2 to 5 µM	2 to 10 µM
Cc1ccc(S(=O)(=O)N2CCC[C@H](C(=O)Nc3ccc(C)c(C(F)(F)F)c3)[C@@H]2c2ccc(NC3CCCC3)cc2)c(C)c1 [Compound 9, (2R,3S)-2-(4-(cyclopentylamino)phenyl)-1-((2,4-dimethylphenyl)sulfonyl)-N-(4-methyl-3-(trifluoromethyl)phenyl)piperidine-3-carboxamide]	2 to 5 µM	2 to 10 µM
Cc1ccc(NC(=O)[C@H]2CCCN(c3ncnc4cccnc34)[C@H]2c2ccc(N(C(=O)OCc3ccccc3)C3CCCC3)cc2)cc1C(F)(F)F [Compound 166, benzyl cyclopentyl(4-((2R,3S)-3-((4-methyl-3-(trifluoromethyl)phenyl)carbamoyl)-1-(pyrido[3,2-d]pyrimidin-4-yl)piperidin-2-yl)phenyl)carbamate]	2 to 5 µM	2 to 10 µM
Cc1ccc(NC(=O)[C@H]2CCCN(S(=O)(=O)c3ccccc3F)[C@H]2c2ccc(NC3CCCC3)cc2)cc1C(F)(F)F [Compound 25, (2R,3S)-2-(4-(cyclopentylamino)phenyl)-1-((2-fluorophenyl)sulfonyl)-N-(4-methyl-3-(trifluoromethyl)phenyl)piperidine-3-carboxamide]	0.5 to 2 µM	> 10 µM
Cc1ccc(NC(=O)[C@H]2CCCN(S(=O)(=O)c3ccccc3C#N)[C@H]2c2ccc(NC3CCCC3)cc2)cc1C(F)(F)F [Compound 30, (2R,3S)-1-((2-cyanophenyl)sulfonyl)-2-(4-(cyclopentylamino)phenyl)-N-(4-methyl-3-(trifluoromethyl)phenyl)piperidine-3-carboxamide]	2 to 5 µM	2 to 10 µM
Cc1ccc(NC(=O)C2C[C@H]3CCC[C@H]3N(C(=O)c3cn(C)cn3)C2c2ccc(NC3CCCC3)cc2)cc1C(F)(F)F (relative stereo) [Compound 113, cis-2-(4-(cyclopentylamino)phenyl)-1-(1-methyl-1H-imidazole-4-carbonyl)-N-(4-methyl-3-(trifluoromethyl)phenyl)octahydro-1H-cyclopenta[b]pyridine-3-carboxamide]	2 to 5 µM	> 10 µM
Cc1ccc(NC(=O)[C@H]2CCCN(S(=O)(=O)c3cccc4ccccc34)[C@H]2c2ccc(NC3CCCC3)cc2)cc1C(F)(F)F [Compound 33, (2R,3S)-2-(4-(cyclopentylamino)phenyl)-N-(4-methyl-3-(trifluoromethyl)phenyl)-1-(naphthalen-1-ylsulfonyl)piperidine-3-carboxamide]	2 to 5 µM	2 to 10 µM
Cc1ccc(NC(=O)[C@H]2CCCN(S(=O)(=O)c3cccnc3Cl)[C@H]2c2ccc(NC3CCCC3)cc2)cc1C(F)(F)F [Compound 36, (2R,3S)-1-((2-chloropyridin-3-yl)sulfonyl)-2-(4-(cyclopentylamino)phenyl)-N-(4-methyl-3-(trifluoromethyl)phenyl)piperidine-3-carboxamide]	0.5 to 2 µM	2 to 10 µM
Cc1ccc(NC(=O)[C@H]2CCCN(S(=O)(=O)c3cccnc3)[C@H]2c2ccc(NC3CCCC3)cc2)cc1C(F)(F)F [Compound 35, (2R,3S)-2-(4-(cyclopentylamino)phenyl)-N-(4-methyl-3-(trifluoromethyl)phenyl)-1-(pyridin-3-ylsulfonyl)piperidine-3-carboxamide]	2 to 5 µM	> 10 µM
Cc1cccc(F)c1C(=O)N1[C@@H]2CCC[C@@H]2C[C@H](C(=O)Nc2ccc3cnn(C)c3c2)[C@@H]1c1ccc(NC2CCCC2)cc1 [Compound 50, (2R,3S,4aR,7aR)-2-(4-(cyclopentylamino)phenyl)-1-(2-fluoro-6-methylbenzoyl)-N-(1-methyl-1H-indazol-6-yl)octahydro-1H-cyclopenta[b]pyridine-3-carboxamide]	< 0.05 µM	0.5 to 2 µM
Cc1cccc(F)c1C(=O)N1C(c2ccc(N(C)C3CCCC3)cc2)C(C(=O)Nc2ccc3c(c2)CCN(C)C3)C[C@@H]2CCC[C@@H]21 (relative stereo) [Compound 201, cis-2-(4-(cyclopentyl(methyl)amino)phenyl)-1-(2-fluoro-6-methylbenzoyl)-N-(2-methyl-1,2,3,4-tetrahydroisoquinolin-6-yl)octahydro-1H-cyclopenta[b]pyridine-3-carboxamide]	> 5 µM	2 to 10 µM
Cc1ccc(NC(=O)[C@H]2CCCN(S(=O)(=O)c3ccccc3C)[C@H]2c2ccc(NC3CCCC3)cc2)cc1C(F)(F)F [Compound 22, (2R,3S)-2-(4-(cyclopentylamino)phenyl)-N-(4-methyl-3-(trifluoromethyl)phenyl)-1-(o-tolylsulfonyl)piperidine-3-carboxamide]	0.5 to 2 µM	> 10 µM
